Experimental findings from ChEMBL document CHEMBL3046147, “Synthesis and Herbicidal Activity of 1-Arylalkyl-3-pyrrolin-2-one Derivatives” (J Pestic Sci, 2000) are described below.

Each structure is given as a SMILES string.

For series [1], the system named is Oryza sativa. In words: Phytotoxicity against two-leaf stage Oryza sativa cv. Nihonbare (rice) planted 1 cm depth measured after […]. The series is classed as organism-based. The conditions noted are these: in vivo.
Series [2] has as its system Sagittaria pygmaea. In words: Herbicide activity against Sagittaria pygmaea under greenhouse condition compound treated at 0.5 leaf-stage measured after 14 to 20 days. The series is classed as functional.
The test system of series [3] is Echinochloa oryzicola. Kind of series: Pre-emergence herbicide activity against Echinochloa oryzicola under greenhouse condition measured after 14 to 20 days. The series is classed as functional.
In series [4] the test system is Oryza sativa. Kind of series: Phytotoxicity against two-leaf stage Oryza sativa cv. Nihonbare (rice) planted 3 cm depth measured after […]. It is filed as organism-based. As to conditions: in vivo.
Series [5] deals with Echinochloa oryzicola. Kind of series: Herbicide activity against Echinochloa oryzicola under greenhouse condition compound treated at 2 leaf-stage measured after 14 to 20 days. It is filed as functional.
Series [6] has as its system Schoenoplectiella juncoides. In words: Herbicide activity against Schoenoplectiella juncoides under greenhouse condition compound treated at emergence-stage measured after 14 to 20 days. The series is classed as functional.

As for `CCOc1ccc2nc(C(C)(C)N3CC(C)=C(c4ccccc4)C3=O)sc2c1`, the values for the MTD in series [1] and in series [4] were 5 g/acre and 10 g/acre, respectively. Besides, the MED is 80 g/acre in series [2], 1.25 g/acre in series [3], under 5 g/acre in series [5] and 160 g/acre in series [6].

Turning to `CC1=C(c2ccccc2)C(=O)N(C(C)(C)c2nc3c(Cl)cccc3s2)C1`, the results for the MTD in series [1] and in series [4] were over 5 g/acre and 10 g/acre, respectively. In addition, the MED was found to be 80 g/acre in series [2], 1.25 g/acre in series [3], 5 g/acre in series [5] and 80 g/acre in series [6].

With `CC1=C(c2ccccc2)C(=O)N(C(C)(C)c2nc(C(C)(C)C)cs2)C1`, the MTD in series [1] came out at 5 g/acre; in series [4] it was 10 g/acre. Further, the MED in series [2] was determined as 80 g/acre; in series [3], 5 g/acre; in series [5] it was 5 g/acre; in series [6], 80 g/acre.

For `CC1=C(c2ccccc2F)C(=O)N(C(C)(C)c2nc3ccccc3s2)C1`, the MTD in series [1] was 5 g/acre; in series [4] it was 10 g/acre. Also, the MED in series [2] came to 20 g/acre; in series [3], 0.156 g/acre; in series [5], 2.5 g/acre; in series [6] it was 10 g/acre.

On to `CC1=C(c2ccccc2)C(=O)N(C(C)(C)c2nc3cc(Cl)ccc3s2)C1`, for which the MTD in series [1] was 10 g/acre; in series [4], 40 g/acre. Further, the MED is on record as 80 g/acre in series [2], 0.625 g/acre in series [3], under 5 g/acre in series [5] and 40 g/acre in series [6].

For `COc1ccc(C2=C(C)CN(C(C)(C)c3nc4ccccc4s3)C2=O)cc1`, the MTD was found to be 10 g/acre in series [1] and 40 g/acre in series [4]. The MED in series [2] is recorded as 80 g/acre; in series [3], 20 g/acre; in series [5], under 5 g/acre; in series [6], 80 g/acre.

Regarding `CC1=C(c2ccccc2)C(=O)N(C(C)(C)c2ncc(-c3ccc(Cl)cc3)s2)C1`, the MTD in series [1] and in series [4] was 80 g/acre in each case. For the same molecule, the MED in series [2] is 160 g/acre; in series [3], 40 g/acre; in series [5] it was under 5 g/acre; in series [6], 160 g/acre.

Consider `CC1=C(c2ccc(F)cc2F)C(=O)N(C(C)(C)c2nc3ccccc3s2)C1`, for which the MTD in series [1] was over 5 g/acre; in series [4] it was 10 g/acre. The MED is reported as 10 g/acre in series [2], 1.25 g/acre in series [3], under 5 g/acre in series [5] and 10 g/acre in series [6].

Turning to `CC1=C(c2ccccc2)C(=O)N(C(C)(C)c2nc3c(C)cccc3s2)C1`, the MTD is recorded as 5 g/acre in series [1] and 20 g/acre in series [4]. The MED is recorded as 80 g/acre in series [2], 2.5 g/acre in series [3], under 5 g/acre in series [5] and 160 g/acre in series [6].

For `CC1=C(Oc2ccc(Cl)cc2)C(=O)N(C(C)(C)c2nc3ccccc3s2)C1`, the MTD in series [1] and in series [4] was 40 g/acre in each case. The MED in series [2] was 160 g/acre; in series [3] it was 80 g/acre; in series [5] it was under 5 g/acre; in series [6], 160 g/acre.

On to `CC1=C(c2cccc(C(F)(F)F)c2)C(=O)N(C(C)(C)c2nc3ccccc3s2)C1`, for which the MTD in series [1] and in series [4] was 20 g/acre throughout. The MED in series [2] is on record as 160 g/acre; in series [3] it was 80 g/acre; in series [5] it was under 5 g/acre; in series [6], 160 g/acre.

`CC1=C(c2ccccc2)C(=O)N(C(C)(C)c2csc(-c3ccccc3)n2)C1`: the MTD in series [1] and in series [4] was 40 g/acre throughout. In addition, the MED in series [2] was 40 g/acre; in series [3], 40 g/acre; in series [5] it was under 5 g/acre; in series [6], 40 g/acre.

With `CCC1=C(c2ccccc2)C(=O)N(C(C)(C)c2nc3ccccc3s2)C1`, the MTD is 20 g/acre in series [1] and 40 g/acre in series [4]. Besides, the MED in series [2] is recorded as 80 g/acre; in series [3] it was 0.313 g/acre; in series [5], 5 g/acre; in series [6], 10 g/acre.

For `CC1=C(c2cccnc2)C(=O)N(C(C)(C)c2nc3ccccc3s2)C1`, the MTD was 5 g/acre in series [1] and 10 g/acre in series [4]. The MED is under 5 g/acre in series [2], 2.5 g/acre in series [3], under 5 g/acre in series [5] and 2.5 g/acre in series [6].

With `CC1=C(c2ccccc2)C(=O)N(C(C)(C)c2nc3cc(C(F)(F)F)ccc3s2)C1`, the MTD in series [1] and in series [4] was 20 g/acre in each case. The MED is 160 g/acre in series [2], 80 g/acre in series [3], under 5 g/acre in series [5] and 80 g/acre in series [6].

As for `CC1=C(c2ccccc2)C(=O)N(C(C)(C)c2nc3ccccc3n2C)C1`, the values for the MTD in series [1] and in series [4] were 80 g/acre and 40 g/acre, respectively. The MED in series [2] was 20 g/acre; in series [3], under 10 g/acre; in series [5], under 5 g/acre; in series [6] it was 40 g/acre.

Consider `CC1=C(c2ccc(-c3ccccc3)cc2)C(=O)N(C(C)(C)c2nc3ccccc3s2)C1`, for which the MTD in series [1] and in series [4] was 80 g/acre each time. For the same molecule, the MED in series [2] is reported as 160 g/acre; in series [3], under 10 g/acre; in series [5] it was under 5 g/acre; in series [6] it was 160 g/acre.

In the case of `CC1=C(c2ccccc2)C(=O)N(C(C)(C)c2nc3ccc(C)cc3s2)C1`, the MTD in series [1] is recorded as 5 g/acre; in series [4], 20 g/acre. For the same molecule, the MED in series [2] was 20 g/acre; in series [3] it was 10 g/acre; in series [5], under 5 g/acre; in series [6] it was 80 g/acre.

Take `CC1=C(c2ccccc2)C(=O)N(C(C)(C)c2nc3cc(C#N)ccc3s2)C1`: the MTD in series [1] is on record as 40 g/acre; in series [4] it was 10 g/acre. In addition, the MED in series [2] was 40 g/acre; in series [3], 5 g/acre; in series [5], under 5 g/acre; in series [6], 20 g/acre.

Consider `CC1=C(c2ccccc2)C(=O)N(C(C)(C)c2nc3ccc(F)cc3s2)C1`, for which the results for the MTD in series [1] and in series [4] were 5 g/acre and 20 g/acre, respectively. Besides, the MED was 40 g/acre in series [2], 5 g/acre in series [3], under 5 g/acre in series [5] and 40 g/acre in series [6].

For `CC1=C(c2ccccc2Br)C(=O)N(C(C)(C)c2nc3ccccc3s2)C1`, the MTD in series [1] is on record as over 5 g/acre; in series [4] it was 5 g/acre. For the same molecule, the MED in series [2] is reported as 40 g/acre; in series [3], 2.5 g/acre; in series [5], under 5 g/acre; in series [6], 20 g/acre.

As for `CC1=C(c2ccccc2)C(=O)N(C(C)(C)c2nc3cc(C)ccc3s2)C1`, the MTD in series [1] came to 2.5 g/acre; in series [4], 40 g/acre. Also, the MED was 10 g/acre in series [2], 10 g/acre in series [3], under 5 g/acre in series [5] and 20 g/acre in series [6].

On to `CC1=C(c2ccccc2C(=O)O)C(=O)N(C(C)(C)c2nc3ccccc3s2)C1`, for which the figures for the MTD in series [1] and in series [4] were 40 g/acre and 20 g/acre, respectively. The MED is 160 g/acre in series [2], 160 g/acre in series [3], under 5 g/acre in series [5] and 160 g/acre in series [6].

As to `COc1ccc(C2=C(C)CN(C(C)(C)c3nc4ccccc4s3)C2=O)cc1OC`, the MTD in series [1] and in series [4] was 80 g/acre throughout. In addition, the MED in series [2] is recorded as 160 g/acre; in series [3] it was 160 g/acre; in series [5], under 5 g/acre; in series [6], 160 g/acre.

For `CC1=C(c2ccccc2)C(=O)N(C(C)(C)c2cc3ccccc3o2)C1`, the results for the MTD in series [1] and in series [4] were 10 g/acre and 20 g/acre, respectively. Besides, the MED in series [2] was found to be 80 g/acre; in series [3] it was 0.313 g/acre; in series [5], 2.5 g/acre; in series [6], 80 g/acre.

Turning to `CC1=C(c2ccccc2Cl)C(=O)N(C(C)(C)c2nc3ccccc3s2)C1`, the MTD in series [1] turned out to be 1.25 g/acre; in series [4], 2.5 g/acre. For the same molecule, the MED in series [2] is reported as 10 g/acre; in series [3], 2.5 g/acre; in series [5] it was 2.5 g/acre; in series [6] it was 10 g/acre.

Take `CC1=C(c2ccccc2)C(=O)N(C(C)(C)c2cccs2)C1`: the MTD in series [1] was determined as 10 g/acre; in series [4] it was 20 g/acre. For the same molecule, the MED in series [2] is recorded as 20 g/acre; in series [3], 5 g/acre; in series [5] it was under 10 g/acre; in series [6] it was 10 g/acre.

`COc1cccc2sc(C(C)(C)N3CC(C)=C(c4ccccc4)C3=O)nc12`: the MTD in series [1] was found to be 20 g/acre; in series [4], 40 g/acre. For the same molecule, the MED is on record as 80 g/acre in series [2], 10 g/acre in series [3], under 5 g/acre in series [5] and 80 g/acre in series [6].
